Measurements as given in patent US10131652B2, “Pyrimidinyloxy benzene derivatives as herbicides” (E. I. DU PONT DE NEMOURS AND COMPANY, priority 2014, dated 2018).

How the values were obtained:
Type in all cases: in vivo
[1] = tested on: barnyardgrass (Echinochloa crus-galli); assay: Test C flooded paddy test plant response; details: Flood, 250 g ai/ha; scale of 0 to 100 where 0 is no effect and 100 is complete control; 13 to 15 days
Procedure, shortened: (§1)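 Plants grown to 2-leaf stage, flooded 3 cm above soil; compounds applied directly into paddy water, depth kept throughout. Visual rating versus controls after 13 to 15 days in greenhouse, 0 (no effect) to 100 (complete control).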

[2] = tested on: ducksalad (Heteranthera limosa); assay: Test C flooded paddy test plant response; details: Flood, 250 g ai/ha; scale of 0 to 100 where 0 is no effect and 100 is complete control; 13 to 15 days
Procedure, shortened: as §1

rice (Oryza sativa) = assay: Test C flooded paddy test plant response; details: Flood, 250 g ai/ha; scale of 0 to 100 where 0 is no effect and 100 is complete control; 13 to 15 days
Procedure, shortened: as §1

[3] = tested on: small-flower umbrella sedge (Cyperus difformis); assay: Test C flooded paddy test plant response; details: Flood, 250 g ai/ha; scale of 0 to 100 where 0 is no effect and 100 is complete control; 13 to 15 days
Procedure, shortened: as §1

[4] = tested on: johnsongrass (Sorghum halepense); assay: Test D pre-/postemergence plant response
Procedure, shortened: (§2)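 Sown seed (loam/sand soil) treated preemergence; emerged plants, 1- to 4-leaf stage and 2 to 18 cm, treated postemergence in peat/vermiculite medium. Greenhouse incubation 13–15 d. Endpoint: visual 0–100 rating versus untreated.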

[5] = tested on: large (Lg) crabgrass (Digitaria sanguinalis); assay: Test D pre-/postemergence plant response
Procedure, shortened: as §2

[6] = tested on: oilseed rape (Brassica napus); assay: Test D pre-/postemergence plant response
Procedure, shortened: as §2

soybean (Glycine max) = assay: Test D pre-/postemergence plant response
Procedure, shortened: as §2

[7] = tested on: velvetleaf (Abutilon theophrasti); assay: Test D pre-/postemergence plant response
Procedure, shortened: as §2

[8] = tested on: winter wheat (Triticum aestivum); assay: Test D pre-/postemergence plant response
Procedure, shortened: as §2

[9] = tested on: yellow nutsedge (Cyperus esculentus); assay: Test D pre-/postemergence plant response
Procedure, shortened: as §2

[10] = tested on: chickweed (common chickweed, Stellaria media); assay: Test D postemergence plant response; details: for Chickweed plant response rating: scale 0 to 100 (0 no effect, 100 complete control); for Plant response rating, Chickweed: scale 0 to 100, 0 no effect, 100 complete control
Procedure, shortened: (§3)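 Scores reflect visual plant response relative to untreated controls on a 0 to 100 scale, where 100 means complete control. Treatment was postemergence on 2–18 cm plants in peat-based potting medium, with greenhouse assessment 13–15 days later.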

kochia (Kochia scoparia) = assay: Test D postemergence plant response; details: for Kochia plant response rating: 31 g ai/ha, scale 0 to 100 (0 no effect, 100 complete control); for Plant response rating, Kochia: scale 0 to 100, 0 no effect, 100 complete control
Procedure, shortened: as §3

wild oat (Avena fatua) = assay: Test D postemergence plant response; details: for Oat, Wild plant response rating: 31 g ai/ha, scale 0 to 100 (0 no effect, 100 complete control); for Plant response rating, Oat, Wild: scale 0 to 100, 0 no effect, 100 complete control
Procedure, shortened: as §3

[11] = Postemergence, 31 g ai/ha, scale 0 to 100 (0 no effect, 100 complete control)
[12] = Postemergence, 62 g ai/ha, scale 0 to 100, 0 no effect, 100 complete control
[13] = Postemergence, 125 g ai/ha, scale 0 to 100, 0 no effect, 100 complete control
[14] = Preemergence, 8 g ai/ha, scale 0 to 100 (0 no effect, 100 complete control)
[15] = Preemergence, 16 g ai/ha, scale 0 to 100 (0 no effect, 100 complete control)
[16] = Preemergence, 31 g ai/ha, scale 0 to 100 (0 no effect, 100 complete control)
[17] = Preemergence, 62 g ai/ha, scale 0 to 100 (0 no effect, 100 complete control)
[18] = Postemergence, 16 g ai/ha, scale 0 to 100 (0 no effect, 100 complete control)

## FC(F)(Cl)c1cc(-c2ccccc2Oc2ncc(Cl)cn2)no1 [Compound 143]
[1]
  Barnyardgrass plant response rating: 30
[2]
  Ducksalad plant response rating: 85
Rice (Oryza sativa)
  Rice plant response rating: 35
[3]
  Sedge, Umbrella plant response rating: 100
[4]; [11]
  Johnsongrass plant response rating: 5
[4]; [12]
  Plant response rating, Johnsongrass: 30
[4]; [13]
  Plant response rating, Johnsongrass: 30
[4]; [14]
  Plant response rating, Johnsongrass: 35
[4]; [15]
  Plant response rating, Johnsongrass: 15
[4]; [16]
  Plant response rating, Johnsongrass: 60
[4]; [17]
  Plant response rating, Johnsongrass: 80
[5]; [18]
  Crabgrass, Large plant response rating: 10
[5]; [11]
  Crabgrass, Large plant response rating: 10
[5]; [12]
  Plant response rating, Crabgrass, Large: 15
[5]; [13]
  Plant response rating, Crabgrass, Large: 35
[5]; [14]
  Plant response rating, Crabgrass, Large: 60
[5]; [15]
  Plant response rating, Crabgrass, Large: 98
[5]; [16]
  Plant response rating, Crabgrass, Large: 100
[5]; [17]
  Plant response rating, Crabgrass, Large: 100
[6]; [11]
  Oilseed Rape plant response rating: 50
[6]; [12]
  Plant response rating, Oilseed Rape: 60
[6]; [13]
  Plant response rating, Oilseed Rape: 65
[6]; [14]
  Plant response rating, Oilseed Rape: 0
[6]; [15]
  Plant response rating, Oilseed Rape: 0
[6]; [16]
  Plant response rating, Oilseed Rape: 85
[6]; [17]
  Plant response rating, Oilseed Rape: 95
Soybean (Glycine max); [11]
  Soybean plant response rating: 30
Soybean (Glycine max); [12]
  Plant response rating, Soybean: 60
Soybean (Glycine max); [13]
  Plant response rating, Soybean: 60
Soybean (Glycine max); [14]
  Plant response rating, Soybean: 0
Soybean (Glycine max); [15]
  Plant response rating, Soybean: 5
Soybean (Glycine max); [16]
  Plant response rating, Soybean: 10
Soybean (Glycine max); [17]
  Plant response rating, Soybean: 25
[7]; [11]
  Velvetleaf plant response rating: 30
[7]; [12]
  Plant response rating, Velvetleaf: 50
[7]; [13]
  Plant response rating, Velvetleaf: 65
[7]; [14]
  Plant response rating, Velvetleaf: 35
[7]; [15]
  Plant response rating, Velvetleaf: 30
[7]; [16]
  Plant response rating, Velvetleaf: 75
[7]; [17]
  Plant response rating, Velvetleaf: 85
[8]; [11]
  Wheat plant response rating: 5
[8]; [12]
  Plant response rating, Wheat: 5
[8]; [13]
  Plant response rating, Wheat: 5
[8]; [14]
  Plant response rating, Wheat: 0
[8]; [15]
  Plant response rating, Wheat: 0
[8]; [16]
  Plant response rating, Wheat: 0
[8]; [17]
  Plant response rating, Wheat: 0
[9]; [11]
  Nutsedge, Yellow plant response rating: 5
[9]; [12]
  Plant response rating, Nutsedge, Yellow: 5
[9]; [13]
  Plant response rating, Nutsedge, Yellow: 5
[9]; [14]
  Plant response rating, Nutsedge, Yellow: 0
[9]; [15]
  Plant response rating, Nutsedge, Yellow: 0
[9]; [16]
  Plant response rating, Nutsedge, Yellow: 0
[9]; [17]
  Plant response rating, Nutsedge, Yellow: 5
[10]; 16 g ai/ha
  Chickweed plant response rating: 45
[10]; 31 g ai/ha
  Chickweed plant response rating: 50
[10]; 62 g ai/ha
  Plant response rating, Chickweed: 60
[10]; 125 g ai/ha
  Plant response rating, Chickweed: 80
Kochia (Kochia scoparia)
  Kochia plant response rating: 100
Kochia (Kochia scoparia); 62 g ai/ha
  Plant response rating, Kochia: 100
Kochia (Kochia scoparia); 125 g ai/ha
  Plant response rating, Kochia: 100
Wild oat (Avena fatua)
  Oat, Wild plant response rating: 0
Wild oat (Avena fatua); 62 g ai/ha
  Plant response rating, Oat, Wild: 5
Wild oat (Avena fatua); 125 g ai/ha
  Plant response rating, Oat, Wild: 5

## CC(F)(F)c1cc(-c2ccccc2Oc2ncc(Br)cn2)no1 [Compound 149]
[1]
  Barnyardgrass plant response rating: 0
[2]
  Ducksalad plant response rating: 80
Rice (Oryza sativa)
  Rice plant response rating: 0
[3]
  Sedge, Umbrella plant response rating: 65
[4]; [11]
  Johnsongrass plant response rating: 10
[4]; [12]
  Plant response rating, Johnsongrass: 15
[4]; [13]
  Plant response rating, Johnsongrass: 10
[5]; [18]
  Crabgrass, Large plant response rating: 5
[5]; [11]
  Crabgrass, Large plant response rating: 5
[5]; [12]
  Plant response rating, Crabgrass, Large: 10
[5]; [13]
  Plant response rating, Crabgrass, Large: 15
[6]; [11]
  Oilseed Rape plant response rating: 30
[6]; [12]
  Plant response rating, Oilseed Rape: 60
[6]; [13]
  Plant response rating, Oilseed Rape: 85
Soybean (Glycine max); [11]
  Soybean plant response rating: 40
Soybean (Glycine max); [12]
  Plant response rating, Soybean: 65
Soybean (Glycine max); [13]
  Plant response rating, Soybean: 65
[7]; [11]
  Velvetleaf plant response rating: 30
[7]; [12]
  Plant response rating, Velvetleaf: 40
[7]; [13]
  Plant response rating, Velvetleaf: 65
[8]; [11]
  Wheat plant response rating: 0
[8]; [12]
  Plant response rating, Wheat: 0
[8]; [13]
  Plant response rating, Wheat: 10
[9]; [11]
  Nutsedge, Yellow plant response rating: 0
[9]; [12]
  Plant response rating, Nutsedge, Yellow: 5
[9]; [13]
  Plant response rating, Nutsedge, Yellow: 5
[10]; 16 g ai/ha
  Chickweed plant response rating: 5
[10]; 31 g ai/ha
  Chickweed plant response rating: 30
[10]; 62 g ai/ha
  Plant response rating, Chickweed: 30
[10]; 125 g ai/ha
  Plant response rating, Chickweed: 60
Kochia (Kochia scoparia)
  Kochia plant response rating: 90
Kochia (Kochia scoparia); 62 g ai/ha
  Plant response rating, Kochia: 100
Kochia (Kochia scoparia); 125 g ai/ha
  Plant response rating, Kochia: 100
Wild oat (Avena fatua)
  Oat, Wild plant response rating: 0
Wild oat (Avena fatua); 62 g ai/ha
  Plant response rating, Oat, Wild: 0
Wild oat (Avena fatua); 125 g ai/ha
  Plant response rating, Oat, Wild: 5

## Fc1cccc(Oc2ncc(Cl)cn2)c1-c1cc(C2CC2)on1 [Compound 130]
[1]
  Barnyardgrass plant response rating: 65
[2]
  Ducksalad plant response rating: 90
Rice (Oryza sativa)
  Rice plant response rating: 30
[3]
  Sedge, Umbrella plant response rating: 90
[4]; [11]
  Johnsongrass plant response rating: 5
[4]; [12]
  Plant response rating, Johnsongrass: 5
[4]; [13]
  Plant response rating, Johnsongrass: 10
[5]; [18]
  Crabgrass, Large plant response rating: 10
[5]; [11]
  Crabgrass, Large plant response rating: 20
[5]; [12]
  Plant response rating, Crabgrass, Large: 20
[5]; [13]
  Plant response rating, Crabgrass, Large: 25
[6]; [11]
  Oilseed Rape plant response rating: 80
[6]; [12]
  Plant response rating, Oilseed Rape: 75
[6]; [13]
  Plant response rating, Oilseed Rape: 95
Soybean (Glycine max); [11]
  Soybean plant response rating: 55
Soybean (Glycine max); [12]
  Plant response rating, Soybean: 98
Soybean (Glycine max); [13]
  Plant response rating, Soybean: 95
[7]; [11]
  Velvetleaf plant response rating: 80
[7]; [12]
  Plant response rating, Velvetleaf: 75
[7]; [13]
  Plant response rating, Velvetleaf: 100
[8]; [11]
  Wheat plant response rating: 5
[8]; [12]
  Plant response rating, Wheat: 30
[8]; [13]
  Plant response rating, Wheat: 35
[9]; [11]
  Nutsedge, Yellow plant response rating: 5
[9]; [12]
  Plant response rating, Nutsedge, Yellow: 20
[9]; [13]
  Plant response rating, Nutsedge, Yellow: 25
[10]; 16 g ai/ha
  Chickweed plant response rating: 80
[10]; 31 g ai/ha
  Chickweed plant response rating: 80
[10]; 62 g ai/ha
  Plant response rating, Chickweed: 80
[10]; 125 g ai/ha
  Plant response rating, Chickweed: 95
Kochia (Kochia scoparia)
  Kochia plant response rating: 95
Kochia (Kochia scoparia); 62 g ai/ha
  Plant response rating, Kochia: 100
Kochia (Kochia scoparia); 125 g ai/ha
  Plant response rating, Kochia: 100
Wild oat (Avena fatua)
  Oat, Wild plant response rating: 15
Wild oat (Avena fatua); 62 g ai/ha
  Plant response rating, Oat, Wild: 35
Wild oat (Avena fatua); 125 g ai/ha
  Plant response rating, Oat, Wild: 60
